From article PMC4178217, “Quinoline 3-sulfonamides inhibit lactate dehydrogenase A and reverse aerobic glycolysis in cancer cells” (Cancer & Metabolism, 2013)
Where two headings read alike, the source gives them in different places.

Experiments:
Aurora B Kinase = Aurora B Kinase (Homo sapiens, UniProt Q96GD4); assay: Aurora B Kinase ANT; type: biochemical; conditions: antagonist; read-out: pIC50 Aurora B Kinase ANT (converted)
Excerpt: (§1) ANT = antagonist (pIC50), AG = agonist (pEC50). pIC50 and pEC50 are the negative logarithms10 of IC50 and EC50, respectively. Click here for file

Adrenergic Receptor a1B = Adrenergic Receptor a1B (Homo sapiens, UniProt P35368); assay: Adrenergic Receptor a1B ANT
Excerpt: as §1

Phosphodiesterase 4B = Phosphodiesterase 4B (Homo sapiens, UniProt Q07343); assay: Phosphodiesterase 4B ANT; type: biochemical; conditions: antagonist; read-out: pIC50 Phosphodiesterase 4B ANT (converted)
Excerpt: as §1

[1] = target: Cannabinoid receptor type 2 (Homo sapiens, UniProt P34972); assay: Cannabinoid receptor type 2 AG; conditions: agonist; read-out: pEC50 Cannabinoid receptor type 2 AG (converted)
Excerpt: as §1

Muscarinic Receptor M1 = target: T1, Muscarinic Receptor M1 (Homo sapiens, UniProt P11229); assay: Muscarinic Receptor M1 AG; conditions: agonist; read-out: pEC50 Muscarinic Receptor M1 AG (converted)
T1 sequence (P11229 1-460): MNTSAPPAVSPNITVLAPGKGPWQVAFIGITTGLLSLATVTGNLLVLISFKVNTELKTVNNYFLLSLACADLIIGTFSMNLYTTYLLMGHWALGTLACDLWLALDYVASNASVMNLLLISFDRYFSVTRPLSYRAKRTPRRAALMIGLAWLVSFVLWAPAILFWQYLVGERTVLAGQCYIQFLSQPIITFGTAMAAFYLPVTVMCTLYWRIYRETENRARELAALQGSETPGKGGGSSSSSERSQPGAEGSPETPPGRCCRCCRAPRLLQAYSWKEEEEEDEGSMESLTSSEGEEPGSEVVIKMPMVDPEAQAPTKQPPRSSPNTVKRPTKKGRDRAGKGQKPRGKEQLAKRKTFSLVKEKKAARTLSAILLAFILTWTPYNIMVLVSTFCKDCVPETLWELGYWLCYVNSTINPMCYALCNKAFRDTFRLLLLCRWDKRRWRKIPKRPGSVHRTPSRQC
Excerpt: as §1

Snu398 cells = assay: Lactate production assay, Snu398 (RapidFire-MS); conditions: Homo sapiens, SNU-398, read-out: lactate production EC50
[2] = target: Nicotinic Ach Receptor A1 (Homo sapiens, UniProt P02708+P07510+Q07001); assay: Nicotinic Ach Receptor A1 ANT
Excerpt: as §1

Adenosine Receptor a2A = Adenosine Receptor a2A (Homo sapiens, UniProt P29274); assay: Adenosine Receptor a2A ANT; conditions: antagonist; read-out: pIC50 Adenosine Receptor a2A ANT (converted)
Excerpt: as §1

Monoamine Oxidase B = Monoamine Oxidase B (Homo sapiens, UniProt P27338); assay: Monoamine Oxidase B ANT; type: biochemical; conditions: antagonist; read-out: pIC50 Monoamine Oxidase B ANT (converted)
Excerpt: as §1

Pregnane X receptor = Pregnane X receptor (Homo sapiens, UniProt O75469); assay: Pregnane X receptor AG; conditions: agonist; read-out: pEC50 Pregnane X receptor AG (converted)
Excerpt: as §1

Dopamin Receptor D2 [3] = target: T2, Dopamin Receptor D2 (Homo sapiens, UniProt P14416); assay: Dopamin receptor D2 ANT; conditions: antagonist; read-out: pIC50 Dopamin receptor D2 ANT (converted)
Excerpt: as §1

Serotonin Receptor 5HT1B = Serotonin Receptor 5HT1B (Homo sapiens, UniProt P28222); assay: Serotonin Receptor 5HT1B AG; conditions: agonist; read-out: pEC50 Serotonin Receptor 5HT1B AG (converted)
Excerpt: as §1

Opioid Receptor k [4] = target: T3, Opioid Receptor k (Homo sapiens, UniProt P41145); assay: Opioid Receptor k ANT; conditions: antagonist; read-out: pIC50 Opioid Receptor k ANT (converted)
Excerpt: as §1

Opioid Receptor k [5] = target: T3, Opioid Receptor k; assay: Opioid Receptor k AG; conditions: agonist; read-out: pEC50 Opioid Receptor k AG (converted)
Excerpt: as §1

Opioid Receptor m = Opioid Receptor m (Homo sapiens, UniProt P35372); assay: Opioid Receptor m ANT; conditions: antagonist; read-out: pIC50 Opioid Receptor m ANT (converted)
Excerpt: as §1

Serotonin Receptor 5H1 = Serotonin Receptor 5H1 ANT; conditions: antagonist
Excerpt: as §1

Serotonin Receptor 5HT3 = target: T4, Serotonin Receptor 5HT3 (Homo sapiens, UniProt P46098); assay: Serotonin Receptor 5HT3 AG; conditions: agonist; read-out: pEC50 Serotonin Receptor 5HT3 AG (converted)
T4 sequence (P46098 24-478): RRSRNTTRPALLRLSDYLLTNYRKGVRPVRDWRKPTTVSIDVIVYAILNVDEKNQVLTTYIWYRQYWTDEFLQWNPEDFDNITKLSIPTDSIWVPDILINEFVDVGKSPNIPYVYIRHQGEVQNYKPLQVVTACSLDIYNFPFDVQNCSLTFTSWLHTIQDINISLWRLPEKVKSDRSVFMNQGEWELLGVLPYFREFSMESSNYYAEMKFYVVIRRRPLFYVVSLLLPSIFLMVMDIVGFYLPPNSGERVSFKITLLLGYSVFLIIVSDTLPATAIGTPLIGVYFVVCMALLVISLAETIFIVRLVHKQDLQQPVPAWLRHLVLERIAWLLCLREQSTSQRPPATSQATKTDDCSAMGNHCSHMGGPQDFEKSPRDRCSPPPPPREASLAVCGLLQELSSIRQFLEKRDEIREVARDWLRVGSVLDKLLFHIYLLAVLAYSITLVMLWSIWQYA
Excerpt: as §1

Dopamin Receptor D2 [6] = target: T2, Dopamin Receptor D2; assay: Dopamin Receptor D2 AG; conditions: agonist; read-out: pEC50 Dopamin Receptor D2 AG (converted)
Excerpt: as §1

Dopamin Receptor D1 = Dopamin Receptor D1 (Homo sapiens, UniProt P21728); assay: Dopamin Receptor D1 ANT; conditions: antagonist; read-out: pIC50 Dopamin Receptor D1 ANT (converted)
Excerpt: as §1

Adrenergic Receptor b2 = Adrenergic Receptor b2 (Homo sapiens, UniProt P07550); assay: Adrenergic Receptor b2 ANT; conditions: antagonist; read-out: pIC50 Adrenergic Receptor b2 ANT (converted)
Excerpt: as §1

[7] = target: Lymphocyte-specific Tyrosine Kinase (Homo sapiens, UniProt P06239); assay: Lymphocyte-specific Tyrosine Kinase ANT; type: biochemical; conditions: antagonist; read-out: pIC50 Lymphocyte-specific Tyrosine Kinase ANT (converted)
Excerpt: as §1

Vasopressin Receptor V1a = Vasopressin Receptor V1a (Homo sapiens, UniProt P37288); assay: Vasopressin Receptor V1a ANT; conditions: antagonist; read-out: pIC50 Vasopressin Receptor V1a ANT (converted)
Excerpt: as §1

T3 sequence (P41145 whole entry): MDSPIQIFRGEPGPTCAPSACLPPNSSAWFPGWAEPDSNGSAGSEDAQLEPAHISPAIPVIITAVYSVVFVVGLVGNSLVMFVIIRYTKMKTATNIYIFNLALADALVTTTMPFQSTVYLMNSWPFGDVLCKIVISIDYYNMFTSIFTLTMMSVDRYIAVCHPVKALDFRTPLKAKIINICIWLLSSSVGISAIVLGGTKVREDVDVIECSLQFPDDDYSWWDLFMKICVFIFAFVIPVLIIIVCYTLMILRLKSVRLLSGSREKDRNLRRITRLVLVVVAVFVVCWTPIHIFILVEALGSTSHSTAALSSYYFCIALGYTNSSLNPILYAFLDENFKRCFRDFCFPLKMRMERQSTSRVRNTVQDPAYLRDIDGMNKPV
T2 sequence (P14416 whole entry): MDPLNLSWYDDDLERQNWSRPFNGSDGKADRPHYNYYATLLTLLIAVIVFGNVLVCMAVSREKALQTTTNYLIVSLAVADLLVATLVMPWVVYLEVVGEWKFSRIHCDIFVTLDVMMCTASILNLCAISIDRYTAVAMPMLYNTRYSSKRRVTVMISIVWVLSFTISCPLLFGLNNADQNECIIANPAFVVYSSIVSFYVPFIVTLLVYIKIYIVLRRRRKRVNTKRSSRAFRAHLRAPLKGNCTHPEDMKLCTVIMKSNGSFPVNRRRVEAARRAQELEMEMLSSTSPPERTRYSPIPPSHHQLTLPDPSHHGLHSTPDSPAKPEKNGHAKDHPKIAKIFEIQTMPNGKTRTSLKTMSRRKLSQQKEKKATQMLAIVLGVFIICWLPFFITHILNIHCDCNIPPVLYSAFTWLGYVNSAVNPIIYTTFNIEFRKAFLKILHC
Chain of Vasopressin Receptor V1a (P37288 whole entry): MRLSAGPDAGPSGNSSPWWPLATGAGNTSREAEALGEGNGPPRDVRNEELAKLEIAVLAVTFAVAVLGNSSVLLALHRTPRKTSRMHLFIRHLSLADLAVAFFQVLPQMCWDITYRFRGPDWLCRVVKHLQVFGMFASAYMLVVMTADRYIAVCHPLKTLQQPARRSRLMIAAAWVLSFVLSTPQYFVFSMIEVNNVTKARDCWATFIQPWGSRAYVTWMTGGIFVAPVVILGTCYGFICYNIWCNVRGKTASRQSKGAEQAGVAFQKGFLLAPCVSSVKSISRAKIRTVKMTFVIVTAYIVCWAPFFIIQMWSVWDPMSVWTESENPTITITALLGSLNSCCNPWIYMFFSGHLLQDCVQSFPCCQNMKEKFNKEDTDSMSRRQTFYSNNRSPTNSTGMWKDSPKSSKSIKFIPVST
Chain of Opioid Receptor m (P35372 whole entry): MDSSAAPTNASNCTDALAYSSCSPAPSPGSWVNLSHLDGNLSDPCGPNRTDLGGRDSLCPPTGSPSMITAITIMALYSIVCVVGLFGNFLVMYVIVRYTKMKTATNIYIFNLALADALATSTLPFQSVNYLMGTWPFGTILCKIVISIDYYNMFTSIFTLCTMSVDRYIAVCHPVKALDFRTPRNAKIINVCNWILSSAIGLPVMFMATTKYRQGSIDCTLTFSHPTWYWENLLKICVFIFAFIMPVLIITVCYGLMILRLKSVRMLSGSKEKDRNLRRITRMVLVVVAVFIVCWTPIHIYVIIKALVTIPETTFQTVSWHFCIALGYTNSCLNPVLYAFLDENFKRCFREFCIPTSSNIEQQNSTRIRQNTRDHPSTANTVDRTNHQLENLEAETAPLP
Chain of Lymphocyte-specific Tyrosine Kinase (P06239 whole entry): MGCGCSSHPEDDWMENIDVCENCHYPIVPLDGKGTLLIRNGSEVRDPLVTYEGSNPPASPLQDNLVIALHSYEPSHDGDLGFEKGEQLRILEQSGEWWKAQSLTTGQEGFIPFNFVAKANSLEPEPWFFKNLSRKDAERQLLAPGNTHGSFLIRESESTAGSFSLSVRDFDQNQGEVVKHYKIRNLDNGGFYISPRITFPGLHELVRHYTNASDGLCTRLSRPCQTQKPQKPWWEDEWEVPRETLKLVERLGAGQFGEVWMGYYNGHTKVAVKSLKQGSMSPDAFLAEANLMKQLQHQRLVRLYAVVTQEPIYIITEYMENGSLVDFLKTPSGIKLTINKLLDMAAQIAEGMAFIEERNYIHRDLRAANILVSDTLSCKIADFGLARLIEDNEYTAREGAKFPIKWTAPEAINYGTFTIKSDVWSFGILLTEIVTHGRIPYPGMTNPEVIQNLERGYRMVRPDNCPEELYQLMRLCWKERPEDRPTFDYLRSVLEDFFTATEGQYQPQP
Chain of Aurora B Kinase (Q96GD4 whole entry): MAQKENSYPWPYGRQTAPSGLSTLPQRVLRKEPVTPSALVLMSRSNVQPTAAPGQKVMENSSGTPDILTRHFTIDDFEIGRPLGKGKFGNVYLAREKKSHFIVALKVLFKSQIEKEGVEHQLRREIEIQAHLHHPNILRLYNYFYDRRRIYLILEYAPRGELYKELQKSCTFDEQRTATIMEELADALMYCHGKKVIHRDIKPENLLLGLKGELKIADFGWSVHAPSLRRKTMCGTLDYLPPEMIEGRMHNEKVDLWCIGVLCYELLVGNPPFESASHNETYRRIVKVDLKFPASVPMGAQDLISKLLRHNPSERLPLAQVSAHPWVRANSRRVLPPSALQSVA
Chain of Serotonin Receptor 5HT1B (P28222 whole entry): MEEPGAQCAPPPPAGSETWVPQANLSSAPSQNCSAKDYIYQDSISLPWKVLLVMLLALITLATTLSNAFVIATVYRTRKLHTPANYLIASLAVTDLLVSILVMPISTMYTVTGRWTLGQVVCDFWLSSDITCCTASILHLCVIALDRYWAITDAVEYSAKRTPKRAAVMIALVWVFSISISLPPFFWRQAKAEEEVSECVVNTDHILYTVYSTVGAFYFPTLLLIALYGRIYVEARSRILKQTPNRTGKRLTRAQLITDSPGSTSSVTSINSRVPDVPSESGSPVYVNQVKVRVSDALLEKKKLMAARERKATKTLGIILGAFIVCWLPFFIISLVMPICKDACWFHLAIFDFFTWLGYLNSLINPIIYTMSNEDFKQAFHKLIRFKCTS
Chain of Dopamin Receptor D1 (P21728 whole entry): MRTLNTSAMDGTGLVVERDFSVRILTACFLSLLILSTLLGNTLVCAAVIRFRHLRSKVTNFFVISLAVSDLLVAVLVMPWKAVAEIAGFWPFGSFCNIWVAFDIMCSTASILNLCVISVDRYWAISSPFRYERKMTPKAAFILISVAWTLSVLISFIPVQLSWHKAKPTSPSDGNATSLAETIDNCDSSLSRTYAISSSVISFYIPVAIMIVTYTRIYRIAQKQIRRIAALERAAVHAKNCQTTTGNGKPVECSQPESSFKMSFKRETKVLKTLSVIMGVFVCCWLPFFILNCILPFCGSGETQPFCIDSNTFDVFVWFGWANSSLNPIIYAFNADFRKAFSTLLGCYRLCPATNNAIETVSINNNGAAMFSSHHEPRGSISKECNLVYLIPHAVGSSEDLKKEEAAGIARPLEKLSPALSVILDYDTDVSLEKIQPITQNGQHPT
Chain of Adenosine Receptor a2A (P29274 whole entry, species assumed): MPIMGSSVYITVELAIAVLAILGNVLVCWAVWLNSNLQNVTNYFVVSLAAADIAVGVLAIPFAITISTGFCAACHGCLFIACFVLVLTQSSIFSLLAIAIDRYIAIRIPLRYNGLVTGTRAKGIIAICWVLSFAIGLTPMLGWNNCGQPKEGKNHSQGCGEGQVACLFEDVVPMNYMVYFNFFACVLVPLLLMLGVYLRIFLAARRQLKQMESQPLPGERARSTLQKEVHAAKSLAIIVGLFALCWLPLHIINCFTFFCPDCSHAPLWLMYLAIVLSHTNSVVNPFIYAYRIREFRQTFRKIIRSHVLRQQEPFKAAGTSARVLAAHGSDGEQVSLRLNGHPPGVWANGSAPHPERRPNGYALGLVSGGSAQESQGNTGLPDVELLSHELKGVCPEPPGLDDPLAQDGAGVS
Chain of Cannabinoid receptor type 2 (P34972 whole entry): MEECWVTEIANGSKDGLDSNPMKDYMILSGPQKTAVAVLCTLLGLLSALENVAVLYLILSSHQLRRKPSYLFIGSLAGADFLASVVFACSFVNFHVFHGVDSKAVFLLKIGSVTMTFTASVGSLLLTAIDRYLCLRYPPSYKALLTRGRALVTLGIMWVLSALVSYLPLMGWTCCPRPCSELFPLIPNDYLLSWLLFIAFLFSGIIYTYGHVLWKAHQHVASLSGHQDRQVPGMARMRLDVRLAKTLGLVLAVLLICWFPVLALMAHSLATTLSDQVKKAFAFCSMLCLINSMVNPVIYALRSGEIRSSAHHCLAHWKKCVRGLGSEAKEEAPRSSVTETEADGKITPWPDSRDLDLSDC
Chain of Phosphodiesterase 4B (Q07343 whole entry): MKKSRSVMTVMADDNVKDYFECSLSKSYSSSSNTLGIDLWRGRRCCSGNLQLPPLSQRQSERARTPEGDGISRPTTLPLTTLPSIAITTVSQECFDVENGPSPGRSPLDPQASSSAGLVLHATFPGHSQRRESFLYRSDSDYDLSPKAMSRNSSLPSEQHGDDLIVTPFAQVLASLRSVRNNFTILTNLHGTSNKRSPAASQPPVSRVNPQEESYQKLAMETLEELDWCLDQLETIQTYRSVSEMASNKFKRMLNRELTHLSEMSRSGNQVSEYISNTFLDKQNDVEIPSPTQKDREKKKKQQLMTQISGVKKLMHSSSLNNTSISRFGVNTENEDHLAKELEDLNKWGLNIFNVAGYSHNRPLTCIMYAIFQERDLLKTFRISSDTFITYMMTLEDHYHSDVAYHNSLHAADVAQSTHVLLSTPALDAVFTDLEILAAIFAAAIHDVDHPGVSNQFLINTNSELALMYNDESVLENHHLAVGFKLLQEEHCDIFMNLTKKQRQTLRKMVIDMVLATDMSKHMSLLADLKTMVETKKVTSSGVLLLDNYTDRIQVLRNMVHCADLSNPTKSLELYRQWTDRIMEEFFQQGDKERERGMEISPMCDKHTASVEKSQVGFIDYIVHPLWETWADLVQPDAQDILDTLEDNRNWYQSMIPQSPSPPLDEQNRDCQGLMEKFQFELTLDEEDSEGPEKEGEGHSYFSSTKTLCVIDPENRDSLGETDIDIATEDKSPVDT

Row | SMILES | IC50 (Aurora B Kinase) [µM] | IC50 (Phosphodiesterase 4B) [µM] | EC50 [1] [µM] | EC50 (Muscarinic Receptor M1) [µM] | EC50 (Snu398 cells) [µM] | IC50 (Adenosine Receptor a2A) [µM] | IC50 (Monoamine Oxidase B) [µM] | EC50 (Pregnane X receptor) [µM] | IC50 (Dopamin Receptor D2 [3]) [µM] | EC50 (Serotonin Receptor 5HT1B) [µM] | IC50 (Opioid Receptor k [4]) [µM] | EC50 (Opioid Receptor k [5]) [µM] | IC50 (Opioid Receptor m) [µM] | pIC50 Serotonin Receptor 5H1 ANT (Serotonin Receptor 5H1) | EC50 (Serotonin Receptor 5HT3) [µM] | EC50 (Dopamin Receptor D2 [6]) [µM] | IC50 (Dopamin Receptor D1) [µM] | IC50 (Adrenergic Receptor b2) [µM] | IC50 [7] [µM] | IC50 (Vasopressin Receptor V1a) [µM] | further results
1 | COc1ncc(-c2ccc3c(Nc4cc(Oc5cc(F)cc(F)c5)cc(C(=O)O)c4)c(S(=O)(=O)NC4CC4)cnc3c2)c(OC)n1 [Compound 1] | 7.94 | 1.26 | 31.6 | 15.8 | 0.4 ± 0.1 | 31.6 | 6.31 | 50.1 | 39.8 | 31.6 | 31.6 | 100 | 63.1 | 4.7 | 50.1 | 100 | 31.6 | 31.6 | 31.6 | 50.1 | IC50 (Adrenergic Receptor a1B): 12.6 µM; IC50 [2]: 50.1 µM
2 | COc1ncc(-c2ccc3c(Nc4cc(C(=O)O)cc(C5CCCC5)c4)c(S(=O)(=O)NC4CC4)cnc3c2)c(OC)n1 [Compound 2] | 31.6 | 0.501 | 31.6 | 15.8 | 0.6 ± 0.2 | 31.6 | 15.8 | 50.1 | 100 | 31.6 | 50.1 | 100 | 31.6 | 4.4 | 39.8 | 100 | 31.6 | 31.6 | 31.6 | 20 | IC50 (Adrenergic Receptor a1B; antagonist, read-out: pIC50 Adrenergic Receptor a1B ANT (converted)): 31.6 µM; IC50 ([2]; antagonist, read-out: pIC50 Nicotinic Ach Receptor A1 ANT (converted)): 15.8 µM
